Source: patent US12534501B2, “Targeting deregulated Wnt signaling in cancer using stabilized alpha-helices of BCL-9” (Dana-Farber Cancer Institute, Inc., priority 2011, dated 2026)
Numbered stars: 1 amine (or outer) side, 2 acyl side, 3 side chain; on linkers, the order of the positions; unused ones are H or OH. Bridge positions count the residues as written; N and C are the ends. Square brackets hold non-standard residues; d marks the D form. Peptide text beside a SMILES is read from it. ξ: configuration not given here. ξαMeNle(6-ylidene) = CC(CCCC=[*:3])(N[*:1])C(=O)[*:2]; Nle = CCCC[C@H](N)C(=O)O

How the values were obtained:
Type in all cases: cell-based
β-catenin = molecular target: T1, β-catenin (Homo sapiens, UniProt P35222); assay: Anti-FITC / anti-β-catenin co-immunoprecipitation from lysates of peptide-treated cells; settings: FITC and β-catenin immunoprecipitation, in situ
T1 construct: endogenous in cells; host or cells: Colo320
T1 sequence (P35222 1-781): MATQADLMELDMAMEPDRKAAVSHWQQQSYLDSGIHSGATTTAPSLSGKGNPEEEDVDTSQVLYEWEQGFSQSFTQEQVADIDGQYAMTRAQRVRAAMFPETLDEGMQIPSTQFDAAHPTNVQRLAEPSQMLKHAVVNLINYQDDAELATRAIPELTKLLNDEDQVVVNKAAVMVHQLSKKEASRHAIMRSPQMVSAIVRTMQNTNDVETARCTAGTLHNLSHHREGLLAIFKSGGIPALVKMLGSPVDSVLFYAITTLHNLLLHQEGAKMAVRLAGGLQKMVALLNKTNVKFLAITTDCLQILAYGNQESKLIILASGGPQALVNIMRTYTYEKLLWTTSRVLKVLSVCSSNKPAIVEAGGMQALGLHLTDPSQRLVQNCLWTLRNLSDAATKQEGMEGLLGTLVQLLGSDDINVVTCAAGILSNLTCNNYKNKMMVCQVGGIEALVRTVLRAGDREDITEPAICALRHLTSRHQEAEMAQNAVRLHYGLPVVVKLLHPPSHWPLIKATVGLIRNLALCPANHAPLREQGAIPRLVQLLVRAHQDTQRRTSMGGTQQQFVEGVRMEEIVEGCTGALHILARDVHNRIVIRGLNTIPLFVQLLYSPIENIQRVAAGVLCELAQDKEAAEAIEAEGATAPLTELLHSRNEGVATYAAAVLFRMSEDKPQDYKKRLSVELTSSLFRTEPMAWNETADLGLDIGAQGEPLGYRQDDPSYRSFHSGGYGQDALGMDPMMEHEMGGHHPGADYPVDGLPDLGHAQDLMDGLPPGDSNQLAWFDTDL
Excerpt: (§1) Western blotting, performed as described (Sukhdeo, K. et al. Proc Natl Acad Sci USA 104, 7516-21 (2007)), employed the following primary antibodies: BCL9 (6109) (Mani, M. et al. Cancer Res 69, 7577-86 (2009)), BCL9 (ab37305, Abcam), B9L (AF4967, R&D Systems), β-catenin (CAT5-H10, Zymed), FITC (ab19224, Abcam), Actin-HRP (C-11, Santa Cruz), Caspase3 (#9662, Cell Signaling), IκBα (#9242, Cell signaling), PARP (#9542, Cell Signaling), E-cadherin (#3195, Cell Signaling), and Lamin B (sc-6217, Santa Cruz). Horseradish peroxidase conjugated secondary antibodies were purchased from Santa Cruz and SouthernBiotech. Co-immunoprecipitation was performed as described (Walensky, L. D. et al. Science 305, 1466-70 (2004)). Briefly, cells were lysed in 50 mM Tris, 150 mM NaCl, and 1% CHAPS buffer containing protease and phosphatase inhibitors. Lysates were precleared with Protein A/G PLUS-agarose beads (Santa Cruz Biotechnologies) for 3 hours followed by overnight incubation at 4° C. with the respective antibodies. Agarose A/G beads were then added for 4 h, pelleted, and washed as described (Walensky, L. D. et al. Science 305, 1466-70 (2004)). See results in FIG. 1D, FIG. 1H, FIG. 2A, FIG. 8.

[1] = tested on: Wnt-dependent reporter activity (TOP-FLASH) in Colo320 cells; assay: Wnt-specific TCF reporter gene assay (TOP-FLASH dual luciferase); settings: Colo320, normalized to Renilla
Experimental: Luciferase activity was measured using the Dual Luciferase Reporter Assay System (Promega) as previously described (Sukhdeo, K. et al. Proc Natl Acad Sci USA 104, 7516-21 (2007)). To measure Wnt or NFκB reporter activity, Colo320 cells were transfected with TOP-FLASH, FOP-FLASH plasmid (Millipore Corporation) or NFκB luciferase reporter (Stratagene), along with an internal Renilla control plasmid (hRL-null). Transfection was accomplished using FuGENE (Roche) according to the manufacturer's protocol. The results were normalized to control Renilla activity. The reported data represent the average of three independent transfection experiments performed in triplicate. See results in FIG. 9, FIG. 10.

[2] = molecular target: T2, β-catenin-BCL9/B9L complexes (Homo sapiens, UniProt P35222); assay: Anti-BCL9 and B9L co-immunoprecipitation (disruption of native complexes); settings: cellular treatment
T2 construct: SAH-BCL9B disrupts native β-catenin-BCL9/B9L complexes; endogenous in cells; Colo320 or MM1S by context
T2 sequence (P35222 2-781): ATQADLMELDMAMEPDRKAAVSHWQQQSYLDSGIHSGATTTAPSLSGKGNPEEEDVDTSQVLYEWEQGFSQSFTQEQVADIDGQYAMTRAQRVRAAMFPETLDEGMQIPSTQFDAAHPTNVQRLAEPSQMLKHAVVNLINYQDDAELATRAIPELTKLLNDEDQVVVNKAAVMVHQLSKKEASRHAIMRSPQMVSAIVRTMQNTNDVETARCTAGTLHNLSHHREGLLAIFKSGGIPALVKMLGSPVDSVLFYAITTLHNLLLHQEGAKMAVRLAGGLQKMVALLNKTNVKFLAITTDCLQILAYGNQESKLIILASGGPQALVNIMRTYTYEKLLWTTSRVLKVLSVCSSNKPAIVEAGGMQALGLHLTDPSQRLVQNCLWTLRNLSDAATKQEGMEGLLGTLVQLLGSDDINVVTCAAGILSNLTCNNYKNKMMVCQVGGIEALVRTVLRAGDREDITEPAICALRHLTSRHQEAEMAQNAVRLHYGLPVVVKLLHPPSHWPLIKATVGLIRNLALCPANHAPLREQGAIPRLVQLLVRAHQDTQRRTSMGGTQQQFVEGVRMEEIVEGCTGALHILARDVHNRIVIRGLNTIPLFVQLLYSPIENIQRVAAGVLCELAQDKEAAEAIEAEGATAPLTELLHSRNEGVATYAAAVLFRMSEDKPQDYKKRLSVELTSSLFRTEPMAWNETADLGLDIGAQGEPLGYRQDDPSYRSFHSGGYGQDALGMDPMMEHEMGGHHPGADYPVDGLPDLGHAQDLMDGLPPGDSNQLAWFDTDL
Excerpt: as §1

Compound | β-catenin interaction by co-immunoprecipitation (β-catenin) | reduction of Wnt-specific TCF reporter activity [1] | disruption of the association of β-catenin with BCL9 and B9L [2]
SAH-BCL9B(R359E): SEQ ID NO: 7: LSQEQLEHEERSLXTLRXIQRBLF; reverse polarity point mutant, negative control of SAH-BCL9B | impaired β-catenin interaction | no effect | no effect
CCCC[C@H](NC(=O)[C@H](CCCNC(=N)N)NC(=O)[C@H](CCC(N)=O)NC(=O)[C@@H](NC(=O)C1(C)CCCC=CCCCC(C)(NC(=O)[C@H](CC(C)C)NC(=O)[C@H](CO)NC(=O)[C@H](CCCNC(=N)N)NC(=O)[C@H](CCC(=O)O)NC(=O)[C@H](CCCNC(=N)N)NC(=O)[C@H](Cc2c[nH]cn2)NC(=O)[C@H](CCC(=O)O)NC(=O)[C@H](CC(C)C)NC(=O)[C@H](CCC(N)=O)NC(=O)[C@H](CCC(=O)O)NC(=O)[C@H](CCC(N)=O)NC(=O)[C@H](CO)NC(=O)[C@H](CC(C)C)NC(C)=O)C(=O)N[C@@H]([C@@H](C)O)C(=O)N[C@@H](CC(C)C)C(=O)N[C@@H](CCCNC(=N)N)C(=O)N1)[C@@H](C)CC)C(=O)N[C@@H](CC(C)C)C(=O)N[C@@H](Cc1ccccc1)C(N)=O (stereo partly drawn) [SAH-BCL9B] (Ac-LSQEQLEHRERSL[ξαMeNle(6-ylidene)]TLR[ξαMeNle(6-ylidene)]IQR[Nle]LF-NH2; staple 14-18) | most effective β-catenin interactor in situ | ~50% | dose-responsively disrupted
